{"source": "paper PMC6812009", "about": "“Covalent Aurora A regulation by the metabolic integrator coenzyme A” (Redox Biology, 2019)", "key": {"VEGFR": {"tested_on": "VEGFR", "test": "Kinase profiling screen (radioactive filter-binding assay)", "assay_type": "biochemical, human", "conditions": "100 μM compound, 20 μM ATP", "method": "Profiling of 117 protein kinases with CoA, dpCoA and ADP was carried out at the International Centre for Protein Kinase Profiling at the University of Dundee. Each compound was tested in vitro, in duplicate, at 100 μM final concentration using recombinant kinases, model substrates and optimal concentrations of ATP. Bacterially expressed full-length His-Aurora A was used to determine the IC50 value for CoA (in the presence or absence of DTT), dpCoA, ADP and desulfo-CoA. The assay was performed in the presence of 5 μM competing ATP. To examine whether the inhibitory effect of CoA on Aurora A is modulated by TPX2, IC50 values for CoA were also generated in the presence and absence of 1 μg TPX2 (residues 1–43) fragment."}, "C290A Aurora A": {"target": "T1, C290A Aurora A (Homo sapiens, UniProt O14965, C290A)", "T1 construct": "For enzyme and DSF assays, full-length human Aurora A and Aurora B and 1–43 TPX2 were produced; made in house; host or cells: E. coli BL21 (DE3) pLysS", "T1 sequence (O14965 whole entry C290A)": "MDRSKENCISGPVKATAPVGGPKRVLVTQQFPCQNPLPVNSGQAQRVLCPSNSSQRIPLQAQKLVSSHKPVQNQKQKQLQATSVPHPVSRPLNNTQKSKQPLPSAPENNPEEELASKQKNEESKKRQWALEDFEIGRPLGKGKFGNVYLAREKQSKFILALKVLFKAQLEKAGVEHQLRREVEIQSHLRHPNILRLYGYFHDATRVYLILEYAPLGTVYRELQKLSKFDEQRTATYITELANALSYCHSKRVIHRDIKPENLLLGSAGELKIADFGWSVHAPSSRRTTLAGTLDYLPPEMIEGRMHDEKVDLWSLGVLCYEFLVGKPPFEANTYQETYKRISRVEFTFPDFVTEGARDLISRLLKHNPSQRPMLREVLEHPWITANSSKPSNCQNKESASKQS", "test": "Thermal shift assay (differential scanning fluorimetry)", "assay_type": "binding", "conditions": "5 mM ATP or 5 mM CoA", "method": "(§1) Asp274Asn and Thr217Glu Aurora A mutants were generated by PCR-site directed mutagenesis, expressed and purified as described previously. Cys290Ala Aurora A was generated using standard procedures, and purified as described.\n(§2) Thermal-shift assays were performed with a StepOnePlus Real-Time PCR machine (Life Technologies) using Sypro-Orange dye (Invitrogen) and thermal ramping (0.3 °C in step intervals between 25 and 94 °C). All proteins were diluted to a final concentration of 5 μM in 50 mM Tris/HCl, pH 7.4 and 100 mM NaCl in the presence or absence of the indicated concentrations of ligand (final DMSO concentration no higher than 4 % v/v). CoA, dephosphoCoA or kinase inhibitors diluted from 10 mM DMSO stocks were assayed as described previously. Normalized data were processed using the Boltzmann equation to generate sigmoidal denaturation curves, and average Tm/ΔTm values calculated as previously described using GraphPad Prism software."}, "[1]": {"target": "T2, kinase-dead D274N (inactive) Aurora A (Homo sapiens, UniProt O14965, D274N)", "T2 construct": "For enzyme and DSF assays, full-length human Aurora A and Aurora B and 1–43 TPX2 were produced; 6His (N); made in house; host or cells: E. coli", "T2 sequence (O14965 whole entry D274N)": "as the sequence (O14965 whole entry C290A) above, with D274N, A290C counted along it", "test": "Thermal shift assay (differential scanning fluorimetry)", "assay_type": "binding", "conditions": "5 mM ATP or 5 mM CoA; CoA DTT-dependent", "method": "as §1, §2"}, "[2]": {"target": "T3, WT Aurora A (T288 phosphorylated, active) (Homo sapiens, UniProt O14965)", "T3 construct": "Bacterially expressed full-length His-Aurora A was used to determine the IC50 value for CoA; made in house; host or cells: E. coli BL21 (DE3) pLysS", "T3 sequence (O14965 1-403)": "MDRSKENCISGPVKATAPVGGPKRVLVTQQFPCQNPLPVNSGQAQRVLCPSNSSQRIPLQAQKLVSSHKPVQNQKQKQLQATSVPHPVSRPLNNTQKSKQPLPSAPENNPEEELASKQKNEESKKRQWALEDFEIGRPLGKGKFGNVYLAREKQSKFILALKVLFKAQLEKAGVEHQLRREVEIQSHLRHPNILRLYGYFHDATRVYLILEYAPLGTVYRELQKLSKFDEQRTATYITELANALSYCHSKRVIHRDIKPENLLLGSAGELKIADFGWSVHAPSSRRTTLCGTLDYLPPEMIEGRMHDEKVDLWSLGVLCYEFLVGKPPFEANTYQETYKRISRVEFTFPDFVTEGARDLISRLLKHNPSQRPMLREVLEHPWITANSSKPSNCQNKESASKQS", "test": "Thermal shift assay (differential scanning fluorimetry)", "assay_type": "binding", "conditions": "5 mM ATP, 5 mM CoA or 0.1 mM MLN8237; for CoA dependent on non-reducing conditions", "method": "as §1, §2"}, "T217E Aurora A": {"target": "T4, T217E Aurora A (Homo sapiens, UniProt O14965, T217E)", "T4 construct": "For enzyme and DSF assays, full-length human Aurora A and Aurora B and 1–43 TPX2 were produced; made in house; host or cells: E. coli", "T4 sequence (O14965 1-403 T217E)": "T3 sequence (O14965 1-403) with T217E", "test": "Thermal shift assay (differential scanning fluorimetry)", "assay_type": "binding", "conditions": "5 mM ATP, 5 mM CoA or 0.1 mM MLN8237", "method": "as §1, §2"}}, "note": "Substitutions are numbered along the chain they refer to.", "data": [{"smiles": "CC(C)(COP(=O)(O)OP(=O)(O)OC[C@H]1O[C@@H](n2cnc3c(N)ncnc32)[C@H](O)[C@@H]1OP(=O)(O)O)[C@@H](O)C(=O)NCCC(=O)NCCS", "note": "[CoA, Coenzyme A]", "values": [{"measurement": "Kinase activity, % of activity in the absence of inhibitor", "setting": "VEGFR", "value": 81.0, "unit": "%"}, {"measurement": "Ligand binding / thermal stabilization", "setting": "C290A Aurora A", "value": "deficient in CoA-induced thermal stabilization"}, {"measurement": "Ligand interaction by thermal shift", "setting": "[1]", "value": "still able to interact"}, {"measurement": "Change in thermal stability (ΔTm)", "setting": "[2]", "value": "marked change in thermal stability"}, {"measurement": "Ligand-induced thermal shift", "setting": "T217E Aurora A", "value": "completely abolished"}]}]}
